Values joined by “and” are separate entries in the source; they are usually repeats but may differ in a detail not shown here. Equal entries are not always repeated. A value given as a limit tells only on which side of the number the result lay.

These results are taken from PubChem BioAssay AID2060486 (Molecular Pharmacology Branch, DTP, NCI, 2025).

For this experiment, the system named is IGROV1 complex spheroids (HUVEC, MSC), viability % test/control. Put plainly: Anticancer human tumor IGROV1 cell line growth inhibition [GQUAD].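 On all read-outs here: spheroids exposed to compounds for 7 days before readout.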 The following applies: for viability, T/C: stronger effect = lower value. From the text: DNA G-quadruplex Stabilizer Agents in Combinations in Complex Spheroids
A high-throughput screen of multi-cell type tumor spheroids was designed to identify active combinations of DNA G-quadruplex stabilizer agents and targeted small molecules. Complex spheroids include a stromal component modeled by human endothelial cells (HUVEC) and fibroblasts modeled by human mesenchymal stem cells (MSCs). The concentration ranges selected for each drug and investigational agent were based upon clinically achievable concentrations if the clinical Cmax of the agent was known.
Compounds. The drugs and investigational agents: pidnarulex (CX-5461; NSC782164), APTO-253 (NSC789042), BRACO-19 (NSC847499), peposertib (NSC802822), ceralasertib (NSC780249), elimusertib (NSC800525), camonsertib (NSC841442), AZD-1390 (NSC803789), olaparib (NSC753686), talazoparib (NSC767125), ART-558 (NSC835418), sotorasib (NSC818433), MRTX-1133 (NSC836407), SN-38 (NSC673596), topotecan (NSC609699), etoposide (NSC141540), doxorubicin (NSC123127), gemcitabine (NSC613327), 5-fluorouracil (NSC19893), paclitaxel (NSC125973), vemurafenib (NSC761431), panobinostat (NSC761190), R-306465 (JNJ-16241199; NSC773264), adavosertib (NSC754352), TP-3654 (NSC805149), carboplatin (NSC241240), KSQ-4279 (NSC840948), and staurosporine (NSC755774) were obtained from the National Cancer Institute (NCI) Developmental Therapeutics Program Chemical Repository (34). The FDA-approved anticancer drug set is available from the NCI Developmental Therapeutics Program. […] The stock solutions were prepared in dimethyl sulfoxide (DMSO, Sigma-Aldrich, St. Louis, MO, cat. D2650) at 800-fold the tested concentration and stored at -70 degrees C prior to their use. All drugs and investigational agents were tested over a range starting from a high concentration at or near the clinical Cmax and decreasing in half-log increments. If the clinical Cmax for an agent had not been determined, the highest concentration tested was 10 microM.
2.3 Cell Culture. All cells were maintained in an incubator at 37 degrees C and 5% CO2 with 95% humidity. The PDC lines were cultured according to standard operating procedures established by the NCI PDMR. All PDCs were thawed and cultured in Matrigel-coated flasks prepared with a working solution of 1X Ham's F-12 nutrient mix, without supplementation (Invitrogen, cat. 11765054), 100 U/mL penicillin-streptomycin (Invitrogen, cat. 15140122), and 2.5% Matrigel (Corning Inc., cat. 354248) for the first three passages. The 857933-349-R-J2-PDC line was cultured in 6C/Colon 1B media, which includes advanced DMEM/F-12 (Thermo Fisher Scientific, cat. 12634028), 10 mM HEPES (Thermo Fisher Scientific, cat. 15630080), 1X GlutaMAX supplement (Thermo Fisher Scientific, cat. 35050061), 0.1 mg/mL primocin (InvivoGen, cat. ant-pm-2), 10% defined fetal bovine serum, heat inactivated (HyClone Laboratories Inc., cat. SH30070.03HI), 50% L-WRN conditioned media (ATCC, cat. CRL-3276), 1.25 mM N-Acetyl-L-cysteine (Sigma-Aldrich, cat. A9165), 10 mM nicotinamide (Sigma-Aldrich, cat. N0636), 1X B-27 supplement (Thermo Fisher Scientific, cat. 17504044), 1X N-2 supplement (Thermo Fisher Scientific, cat. 17502048), 10 microM Y-27632 dihydrochloride (Tocris Bioscience, cat. 1254), and 50 ng/mL human EGF recombinant protein (Thermo Fisher Scientific, cat. PHG0311). The 485176-168-R4-J1-PDC line was cultured in Panc media, which includes all 6C/Colon 1B media components plus 100 ng/mL human FGF-10 (Thermo Fisher Scientific, cat. 100-26), 500 nM SB-431542 (Selleckchem, cat. S1067), and gastrin (Tocris, cat. 3006).
[…]

Consider `C=CCn1c(=O)c2cnc(Nc3ccc(N4CCN(C)CC4)cc3)nc2n1-c1cccc(C(C)(C)O)n1`, for which the viability, T/C is, setting by setting: (compound 0.0316 µM) 104% and 89% and 99.3%; (compound 0.1 µM) 65.7% and 69.2% and 68.7%; (compound 0.316 µM) 13.4% and 17.4% and 11.9%; (compound 1 µM) 3.03% and 3.13% and 2.69%; (compound 3.16 µM) 2.56% and 2.47% and 2.43%; (compound 10 µM) 1.88% and 1.86% and 2.35%. In addition, where the note is “curve of compound”, the IC50 is 141 nM and 153 nM and 146 nM.

For the molecule `CC(C)(O)C1CCC(Nc2ccc3ncc(-c4cccc(C(F)(F)F)c4)n3n2)CC1` (stereo unspecified), the viability, T/C is, setting by setting: (compound 0.0316 µM) 109% and 102% and 93.8%; (compound 0.1 µM) 101% and 72.6% and 98.9%; (compound 0.316 µM) 104% and 94.5% and 96.9%; (compound 1 µM) 78.5% and 77.2% and 75.5%; (compound 3.16 µM) 27% and 35.3% and 27.6%; (compound 10 µM) 31.4% and 36.7% and 24.7%. Moreover, the IC50 (curve of compound) is 1940 nM and 2140 nM and 1840 nM.

Regarding `COc1ncnc(C2CC2)c1-c1ncc2cnn(Cc3ccc(-c4nc(C(F)(F)F)cn4C(C)C)cc3)c2n1`, the viability, T/C runs as follows: (compound 0.0316 µM) 99.3% and 85% and 100%; (compound 0.1 µM) 82.7% and 93.3% and 87%; (compound 0.316 µM) 94.9% and 98.1% and 93%; (compound 1 µM) 90.1% and 91.9% and 96.5%; (compound 3.16 µM) 78.2% and 69.5% and 96.9%; (compound 10 µM) 94.5% and 82.1% and 77.6%. Besides, the IC50 (curve of compound) is above 10000 nM.

Turning to `Cc1[nH]c2ccc(F)cc2c1-c1nc2c3cccnc3c3ncccc3c2[nH]1`, the viability, T/C is 101% [middle of 12 runs] (compound 0.1 µM), 4.97% [middle of 12 runs] (compound 1 µM), 4.72% [middle of 12 runs] (compound 3.16 µM) and 4.29% [middle of 12 runs] (compound 10 µM). The IC50 was 561 nM [middle of 8 runs] (compound alone, run of 03/18/2024) and 531 nM [middle of 4 runs] (compound alone, run of 03/26/2024).

For `O=C(NO)c1cnc(N2CCN(S(=O)(=O)c3ccc4ccccc4c3)CC2)nc1`, the viability, T/C by setting is: (compound 0.0316 µM) 65% and 73.3% and 81.7%; (compound 0.1 µM) 24% and 32.4% and 40.8%; (compound 0.316 µM) 4.46% and 3.52% and 3.88%; (compound 1 µM) 0.24% and 0.3% and 0.34%; (compound 3.16 µM) 0.04% (2×) and 0.15%; (compound 10 µM) 0.06% and 0.13% and 0.05%. The IC50 (curve of compound) is 48.1 nM and 61 nM and 77.2 nM.

With `CC1COCCN1c1cc(-c2ccnn2C)c2ccnc(-c3ccn[nH]3)c2n1` (stereo unspecified) + CN(C)c1ccc(Nc2c3ccc(NC(=O)CCN4CCCC4)cc3nc3cc(NC(=O)CCN4CCCC4)ccc23)cc1, the IC50 by setting is: (curve of first compound, second compound 0.0316 µM) 50.7 nM; (curve of first compound, second compound 0.1 µM) 49.6 nM; (curve of first compound, second compound 0.316 µM) 37.1 nM; (curve of first compound, second compound 1 µM) 43 nM; (curve of first compound, second compound 3.16 µM) below 31.6 nM; (curve of first compound, second compound 10 µM) below 31.6 nM. In addition, the viability, T/C is, setting by setting: (second compound 0.0316 µM, first compound 0.0316 µM) 66.2%; (second compound 0.0316 µM, first compound 0.1 µM) 26.3%; (second compound 0.0316 µM, first compound 0.316 µM) 12.3%; (second compound 0.0316 µM, first compound 1 µM) 7.64%; (second compound 0.0316 µM, first compound 3.16 µM) 4.82%; (second compound 0.0316 µM, first compound 10 µM) 3.77%. The viability, T/C (second compound 0.1 µM, first compound 0.0316 µM) is 66.3%; the viability, T/C (second compound 0.1 µM, first compound 0.1 µM) is 24.2%; the viability, T/C (second compound 0.1 µM, first compound 0.316 µM) is 11.8%; the viability, T/C (second compound 0.1 µM, first compound 1 µM) was 7.54%; the viability, T/C (second compound 0.1 µM, first compound 3.16 µM) is 5.16%; the viability, T/C (second compound 0.1 µM, first compound 10 µM) is 3.61%. Moreover, the viability, T/C runs as follows: (second compound 0.316 µM, first compound 0.0316 µM) 54.9%; (second compound 0.316 µM, first compound 0.1 µM) 21.5%; (second compound 0.316 µM, first compound 0.316 µM) 9.35%; (second compound 0.316 µM, first compound 1 µM) 6.62%; (second compound 0.316 µM, first compound 3.16 µM) 5.67%; (second compound 0.316 µM, first compound 10 µM) 3.51%. For the same molecule, the viability, T/C (second compound 1 µM, first compound 0.0316 µM) was 57.8%; the viability, T/C (second compound 1 µM, first compound 0.1 µM) was 28.5%; the viability, T/C (second compound 1 µM, first compound 0.316 µM) was 11.7%; the viability, T/C (second compound 1 µM, first compound 1 µM) was 7.28%; the viability, T/C (second compound 1 µM, first compound 3.16 µM) is 5.79%; the viability, T/C (second compound 1 µM, first compound 10 µM) was 3.85%. Also, the viability, T/C by setting is: (second compound 3.16 µM, first compound 0.0316 µM) 44%; (second compound 3.16 µM, first compound 0.1 µM) 18.2%; (second compound 3.16 µM, first compound 0.316 µM) 11.2%; (second compound 3.16 µM, first compound 1 µM) 7.75%; (second compound 3.16 µM, first compound 3.16 µM) 4.98%; (second compound 3.16 µM, first compound 10 µM) 3.18%. Also, the viability, T/C reads like this: (second compound 10 µM, first compound 0.0316 µM) 20.6%; (second compound 10 µM, first compound 0.1 µM) 10.5%; (second compound 10 µM, first compound 0.316 µM) 9.22%; (second compound 10 µM, first compound 1 µM) 5.87%; (second compound 10 µM, first compound 3.16 µM) 5.04%; (second compound 10 µM, first compound 10 µM) 3.72%.

For orientation: viability, T/C means the ratio of treated to control. Usually IC50 stands for the concentration needed to halve the response being measured.
